For three compounds, IC50 results are on record in ChEMBL document CHEMBL1240479, “Exploring benzcyclo derivatives as potent aromatase inhibitors using ligand-based modeling studies” (Eur J Med Chem, 2010).

pIC50: −log10 of the molar value.

This assay addresses T1, Aromatase (Homo sapiens, UniProt P11511).
T1 sequence (P11511 whole entry): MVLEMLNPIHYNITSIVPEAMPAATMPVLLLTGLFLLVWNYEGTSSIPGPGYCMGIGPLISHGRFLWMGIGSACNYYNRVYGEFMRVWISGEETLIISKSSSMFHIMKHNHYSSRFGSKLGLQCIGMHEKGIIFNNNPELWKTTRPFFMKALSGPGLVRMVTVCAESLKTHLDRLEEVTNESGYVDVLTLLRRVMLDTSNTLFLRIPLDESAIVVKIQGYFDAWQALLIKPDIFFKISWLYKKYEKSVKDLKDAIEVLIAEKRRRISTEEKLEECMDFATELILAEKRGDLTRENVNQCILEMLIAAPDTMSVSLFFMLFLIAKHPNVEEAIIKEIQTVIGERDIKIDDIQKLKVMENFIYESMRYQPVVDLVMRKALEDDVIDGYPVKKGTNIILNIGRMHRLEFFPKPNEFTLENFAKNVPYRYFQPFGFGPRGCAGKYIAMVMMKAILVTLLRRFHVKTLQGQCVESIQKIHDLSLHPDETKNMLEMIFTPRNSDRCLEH
Nature of the assay: Inhibition of aromatase.
A word on the pIC50: it is the IC50 on a negative log10 scale, so that one unit is a factor of ten. Higher therefore signals a low IC50. As for `Brc1ccc2c(c1)CC/C2=C/c1ccncc1`, the pIC50 was 5.40.
As to `Brc1ccc2c(c1)CCC2=Cc1ccncc1`, the negative-log IC50 (pIC50) is 5.47.
`C(=C(c1ccccc1)c1ccccc1)c1cccnc1` gave a pIC50 of 5.43.
